In ChEMBL document CHEMBL5678810:

Molecular target: T1, Serine/threonine-protein kinase TAO1 (Homo sapiens) (UniProt Q7L7X3)
T1 sequence (whole entry): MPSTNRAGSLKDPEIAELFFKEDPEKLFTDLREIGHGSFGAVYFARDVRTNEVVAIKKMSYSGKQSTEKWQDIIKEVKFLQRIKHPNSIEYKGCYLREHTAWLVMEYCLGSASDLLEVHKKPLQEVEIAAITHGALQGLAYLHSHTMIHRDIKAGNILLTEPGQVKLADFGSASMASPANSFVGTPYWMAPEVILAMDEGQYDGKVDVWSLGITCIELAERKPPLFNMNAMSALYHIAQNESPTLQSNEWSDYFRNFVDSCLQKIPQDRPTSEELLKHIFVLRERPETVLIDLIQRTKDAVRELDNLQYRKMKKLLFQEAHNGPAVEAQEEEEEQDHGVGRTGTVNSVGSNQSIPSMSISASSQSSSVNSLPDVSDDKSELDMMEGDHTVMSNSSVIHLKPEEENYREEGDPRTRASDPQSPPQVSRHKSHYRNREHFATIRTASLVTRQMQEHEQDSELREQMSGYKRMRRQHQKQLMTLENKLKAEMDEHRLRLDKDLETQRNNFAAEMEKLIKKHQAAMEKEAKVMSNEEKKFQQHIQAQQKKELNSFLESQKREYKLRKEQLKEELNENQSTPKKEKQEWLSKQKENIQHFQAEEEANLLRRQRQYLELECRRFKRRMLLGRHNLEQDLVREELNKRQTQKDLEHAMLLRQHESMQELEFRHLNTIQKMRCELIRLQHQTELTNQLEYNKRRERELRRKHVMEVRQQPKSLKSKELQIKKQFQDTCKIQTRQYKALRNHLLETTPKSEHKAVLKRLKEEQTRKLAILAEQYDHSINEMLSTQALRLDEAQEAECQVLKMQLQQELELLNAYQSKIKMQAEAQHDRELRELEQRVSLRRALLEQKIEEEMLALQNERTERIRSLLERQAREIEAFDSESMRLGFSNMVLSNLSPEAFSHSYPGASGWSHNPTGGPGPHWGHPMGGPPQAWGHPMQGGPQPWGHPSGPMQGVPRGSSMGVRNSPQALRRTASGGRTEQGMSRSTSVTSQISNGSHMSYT
Experiment: Inhibition of T7 bacteriophage fused human TAOK1 at 10 uM by KINOMEscan analysis relative to control

Row | Compound | inhibition [%]
1 | CCOc1cc(C(=O)N2CCC(N3CCN(C)CC3)CC2)ccc1Nc1ncc2c(n1)N(C1CCCC1)c1ccccc1C(=O)N2C | 79
2 | COc1cc(C(=O)N2CCC(N3CCN(C)CC3)CC2)ccc1Nc1ncc2c(n1)N(C1CCCC1)c1ccccc1C(=O)N2C | 51

Molecular target: T2, Mitogen-activated protein kinase kinase kinase 7 (Homo sapiens) (UniProt O43318)
T2 sequence (whole entry): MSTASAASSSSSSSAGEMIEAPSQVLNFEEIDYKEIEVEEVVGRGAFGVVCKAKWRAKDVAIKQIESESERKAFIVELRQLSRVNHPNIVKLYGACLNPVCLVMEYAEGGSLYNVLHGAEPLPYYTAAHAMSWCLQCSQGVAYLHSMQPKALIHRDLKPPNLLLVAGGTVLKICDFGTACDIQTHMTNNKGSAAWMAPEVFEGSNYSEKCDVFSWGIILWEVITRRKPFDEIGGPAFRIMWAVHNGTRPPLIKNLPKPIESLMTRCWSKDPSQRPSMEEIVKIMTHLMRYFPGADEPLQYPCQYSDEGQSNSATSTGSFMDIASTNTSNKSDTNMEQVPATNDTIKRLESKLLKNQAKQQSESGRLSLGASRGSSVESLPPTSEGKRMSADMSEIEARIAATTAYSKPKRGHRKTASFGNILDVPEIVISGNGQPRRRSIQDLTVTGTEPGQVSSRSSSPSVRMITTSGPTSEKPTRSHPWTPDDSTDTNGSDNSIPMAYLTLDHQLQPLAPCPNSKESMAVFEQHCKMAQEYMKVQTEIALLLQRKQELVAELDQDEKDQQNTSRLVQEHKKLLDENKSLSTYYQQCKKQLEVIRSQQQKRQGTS
Experiment: Inhibition of T7 bacteriophage fused human TAK1 at 10 uM by KINOMEscan analysis relative to control

Row | Compound | inhibition [%]
3 | CCOc1cc(C(=O)N2CCC(N3CCN(C)CC3)CC2)ccc1Nc1ncc2c(n1)N(C1CCCC1)c1ccccc1C(=O)N2C | 100
4 | COc1cc(C(=O)N2CCC(N3CCN(C)CC3)CC2)ccc1Nc1ncc2c(n1)N(C1CCCC1)c1ccccc1C(=O)N2C | 100

Molecular target: Ribosomal protein S6 kinase alpha-2 (Homo sapiens) (UniProt Q15349)
Experiment: Inhibition of T7 bacteriophage fused human N-terminal RSK3 Kinase domain-1 at 10 uM by KINOMEscan analysis relative to control

Row | Compound | inhibition [%]
5 | CCOc1cc(C(=O)N2CCC(N3CCN(C)CC3)CC2)ccc1Nc1ncc2c(n1)N(C1CCCC1)c1ccccc1C(=O)N2C | 100
6 | COc1cc(C(=O)N2CCC(N3CCN(C)CC3)CC2)ccc1Nc1ncc2c(n1)N(C1CCCC1)c1ccccc1C(=O)N2C | 100

Molecular target: Serine/threonine-protein kinase 32B (Homo sapiens) (UniProt Q9NY57)
Experiment: Inhibition of T7 bacteriophage fused human YANK2 at 10 uM by KINOMEscan analysis relative to control

Serine/threonine-protein kinase 32B (Homo sapiens), sequence (Q9NY57 whole entry, the tested form may be a part): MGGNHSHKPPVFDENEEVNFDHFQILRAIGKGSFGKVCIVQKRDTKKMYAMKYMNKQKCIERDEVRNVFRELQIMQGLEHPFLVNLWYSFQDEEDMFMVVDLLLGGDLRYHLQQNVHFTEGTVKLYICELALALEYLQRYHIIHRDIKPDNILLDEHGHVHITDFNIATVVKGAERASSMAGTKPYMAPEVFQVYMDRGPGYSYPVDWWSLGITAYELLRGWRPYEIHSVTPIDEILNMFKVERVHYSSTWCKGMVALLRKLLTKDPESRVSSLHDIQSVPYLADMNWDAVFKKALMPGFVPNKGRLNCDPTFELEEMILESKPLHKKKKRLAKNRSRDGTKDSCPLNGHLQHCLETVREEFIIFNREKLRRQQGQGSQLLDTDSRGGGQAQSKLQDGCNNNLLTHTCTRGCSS

Row | Compound | inhibition [%]
7 | CCOc1cc(C(=O)N2CCC(N3CCN(C)CC3)CC2)ccc1Nc1ncc2c(n1)N(C1CCCC1)c1ccccc1C(=O)N2C | 100
8 | COc1cc(C(=O)N2CCC(N3CCN(C)CC3)CC2)ccc1Nc1ncc2c(n1)N(C1CCCC1)c1ccccc1C(=O)N2C | 100

Molecular target: Tyrosine-protein kinase SYK (Homo sapiens) (UniProt P43405)
Experiment: Inhibition of T7 bacteriophage fused human SYK at 10 uM by KINOMEscan analysis relative to control

Row | Compound | inhibition [%]
9 | CCOc1cc(C(=O)N2CCC(N3CCN(C)CC3)CC2)ccc1Nc1ncc2c(n1)N(C1CCCC1)c1ccccc1C(=O)N2C | 100
10 | COc1cc(C(=O)N2CCC(N3CCN(C)CC3)CC2)ccc1Nc1ncc2c(n1)N(C1CCCC1)c1ccccc1C(=O)N2C | 100

Molecular target: Dual specificity testis-specific protein kinase 1 (Homo sapiens) (UniProt Q15569)
Experiment: Inhibition of T7 bacteriophage fused human TESK1 at 10 uM by KINOMEscan analysis relative to control

Row | Compound | inhibition [%]
11 | CCOc1cc(C(=O)N2CCC(N3CCN(C)CC3)CC2)ccc1Nc1ncc2c(n1)N(C1CCCC1)c1ccccc1C(=O)N2C | 100
12 | COc1cc(C(=O)N2CCC(N3CCN(C)CC3)CC2)ccc1Nc1ncc2c(n1)N(C1CCCC1)c1ccccc1C(=O)N2C | 100

Molecular target: Vascular endothelial growth factor receptor 2 (Homo sapiens) (UniProt P35968)
Experiment: Inhibition of T7 bacteriophage fused human VEGFR2 at 10 uM by KINOMEscan analysis relative to control

Row | Compound | inhibition [%]
13 | CCOc1cc(C(=O)N2CCC(N3CCN(C)CC3)CC2)ccc1Nc1ncc2c(n1)N(C1CCCC1)c1ccccc1C(=O)N2C | 100
14 | COc1cc(C(=O)N2CCC(N3CCN(C)CC3)CC2)ccc1Nc1ncc2c(n1)N(C1CCCC1)c1ccccc1C(=O)N2C | 100

Molecular target: Wee1-like protein kinase 2 (Homo sapiens) (UniProt P0C1S8)
Experiment: Inhibition of T7 bacteriophage fused human WEE2 at 10 uM by KINOMEscan analysis relative to control

Row | Compound | inhibition [%]
15 | CCOc1cc(C(=O)N2CCC(N3CCN(C)CC3)CC2)ccc1Nc1ncc2c(n1)N(C1CCCC1)c1ccccc1C(=O)N2C | 100
16 | COc1cc(C(=O)N2CCC(N3CCN(C)CC3)CC2)ccc1Nc1ncc2c(n1)N(C1CCCC1)c1ccccc1C(=O)N2C | 100

Molecular target: Tyrosine-protein kinase receptor Tie-1 (Homo sapiens) (UniProt P35590)
Experiment: Inhibition of T7 bacteriophage fused human TIE1 at 10 uM by KINOMEscan analysis relative to control

Tyrosine-protein kinase receptor Tie-1 (Homo sapiens), sequence (P35590 whole entry, the tested form may be a part): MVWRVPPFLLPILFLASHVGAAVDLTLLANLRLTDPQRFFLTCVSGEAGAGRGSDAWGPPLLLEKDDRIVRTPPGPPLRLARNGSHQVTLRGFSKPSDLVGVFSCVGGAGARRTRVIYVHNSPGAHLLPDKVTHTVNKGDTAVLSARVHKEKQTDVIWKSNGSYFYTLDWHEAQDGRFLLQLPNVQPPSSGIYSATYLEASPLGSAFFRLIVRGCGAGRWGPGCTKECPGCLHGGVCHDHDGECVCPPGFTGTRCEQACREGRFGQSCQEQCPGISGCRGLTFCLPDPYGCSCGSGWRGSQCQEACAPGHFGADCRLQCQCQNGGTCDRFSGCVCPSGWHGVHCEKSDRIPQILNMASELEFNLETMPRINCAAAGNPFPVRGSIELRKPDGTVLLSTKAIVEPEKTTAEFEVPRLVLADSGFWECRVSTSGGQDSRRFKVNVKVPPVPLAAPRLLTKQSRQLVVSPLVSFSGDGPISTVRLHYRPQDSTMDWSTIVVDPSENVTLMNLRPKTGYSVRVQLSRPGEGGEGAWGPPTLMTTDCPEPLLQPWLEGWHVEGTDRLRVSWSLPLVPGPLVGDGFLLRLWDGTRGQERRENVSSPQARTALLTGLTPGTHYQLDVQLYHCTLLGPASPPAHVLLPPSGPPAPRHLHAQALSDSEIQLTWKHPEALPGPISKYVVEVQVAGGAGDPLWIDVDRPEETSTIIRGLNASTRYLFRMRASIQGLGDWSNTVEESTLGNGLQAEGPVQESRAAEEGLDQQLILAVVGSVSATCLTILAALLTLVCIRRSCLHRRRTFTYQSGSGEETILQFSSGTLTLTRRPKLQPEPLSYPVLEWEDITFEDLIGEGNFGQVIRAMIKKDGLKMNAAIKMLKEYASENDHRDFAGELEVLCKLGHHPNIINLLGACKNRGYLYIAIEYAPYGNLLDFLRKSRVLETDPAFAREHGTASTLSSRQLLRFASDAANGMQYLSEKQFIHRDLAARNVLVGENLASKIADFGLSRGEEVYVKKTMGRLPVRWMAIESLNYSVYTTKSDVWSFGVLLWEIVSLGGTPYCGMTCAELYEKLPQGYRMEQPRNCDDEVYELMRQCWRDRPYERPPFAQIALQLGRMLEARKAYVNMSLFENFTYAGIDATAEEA

Row | Compound | inhibition [%]
17 | CCOc1cc(C(=O)N2CCC(N3CCN(C)CC3)CC2)ccc1Nc1ncc2c(n1)N(C1CCCC1)c1ccccc1C(=O)N2C | 100
18 | COc1cc(C(=O)N2CCC(N3CCN(C)CC3)CC2)ccc1Nc1ncc2c(n1)N(C1CCCC1)c1ccccc1C(=O)N2C | 100

Molecular target: STE20/SPS1-related proline-alanine-rich protein kinase (Homo sapiens) (UniProt Q9UEW8)
Experiment: Inhibition of T7 bacteriophage fused human STK39 at 10 uM by KINOMEscan analysis relative to control

Row | Compound | inhibition [%]
19 | CCOc1cc(C(=O)N2CCC(N3CCN(C)CC3)CC2)ccc1Nc1ncc2c(n1)N(C1CCCC1)c1ccccc1C(=O)N2C | 100
20 | COc1cc(C(=O)N2CCC(N3CCN(C)CC3)CC2)ccc1Nc1ncc2c(n1)N(C1CCCC1)c1ccccc1C(=O)N2C | 100

Molecular target: Activated CDC42 kinase 1 (Homo sapiens) (UniProt Q07912)
Experiment: Inhibition of T7 bacteriophage fused human TNK2 at 10 uM by KINOMEscan analysis relative to control

Activated CDC42 kinase 1 (Homo sapiens), sequence (Q07912 whole entry, looked up, the tested form may be a part): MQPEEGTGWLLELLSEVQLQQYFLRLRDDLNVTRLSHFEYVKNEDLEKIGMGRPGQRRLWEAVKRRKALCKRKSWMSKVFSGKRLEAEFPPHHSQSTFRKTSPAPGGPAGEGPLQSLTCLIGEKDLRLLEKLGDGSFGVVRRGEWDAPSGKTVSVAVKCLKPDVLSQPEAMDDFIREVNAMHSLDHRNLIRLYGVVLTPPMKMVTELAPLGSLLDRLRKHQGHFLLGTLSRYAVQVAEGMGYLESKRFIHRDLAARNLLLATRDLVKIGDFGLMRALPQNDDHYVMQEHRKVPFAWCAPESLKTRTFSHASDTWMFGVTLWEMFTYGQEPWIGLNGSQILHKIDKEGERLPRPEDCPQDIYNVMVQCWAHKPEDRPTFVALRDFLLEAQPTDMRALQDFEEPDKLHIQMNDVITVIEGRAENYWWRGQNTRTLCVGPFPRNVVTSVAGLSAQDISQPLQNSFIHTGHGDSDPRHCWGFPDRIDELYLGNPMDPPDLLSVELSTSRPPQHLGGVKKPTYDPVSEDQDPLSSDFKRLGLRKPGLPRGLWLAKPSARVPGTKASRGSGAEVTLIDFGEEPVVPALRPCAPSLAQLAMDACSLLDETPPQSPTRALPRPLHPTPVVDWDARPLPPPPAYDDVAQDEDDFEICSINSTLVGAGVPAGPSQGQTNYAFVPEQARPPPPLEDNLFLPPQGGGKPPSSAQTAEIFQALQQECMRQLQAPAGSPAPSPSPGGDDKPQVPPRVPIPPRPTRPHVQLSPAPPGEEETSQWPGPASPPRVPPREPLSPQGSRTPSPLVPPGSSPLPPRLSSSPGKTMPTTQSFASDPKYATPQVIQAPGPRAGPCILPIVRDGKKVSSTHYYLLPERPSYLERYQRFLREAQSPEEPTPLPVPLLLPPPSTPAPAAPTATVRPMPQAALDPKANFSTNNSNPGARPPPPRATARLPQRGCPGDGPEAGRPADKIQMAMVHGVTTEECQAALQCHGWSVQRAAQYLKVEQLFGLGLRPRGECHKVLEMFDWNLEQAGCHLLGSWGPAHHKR

Row | Compound | inhibition [%]
21 | CCOc1cc(C(=O)N2CCC(N3CCN(C)CC3)CC2)ccc1Nc1ncc2c(n1)N(C1CCCC1)c1ccccc1C(=O)N2C | 80
22 | COc1cc(C(=O)N2CCC(N3CCN(C)CC3)CC2)ccc1Nc1ncc2c(n1)N(C1CCCC1)c1ccccc1C(=O)N2C | 35

Molecular target: TGF-beta receptor type-2 (Homo sapiens) (UniProt P37173)
Experiment: Inhibition of T7 bacteriophage fused human TGFBR2 at 10 uM by KINOMEscan analysis relative to control

Row | Compound | inhibition [%]
23 | CCOc1cc(C(=O)N2CCC(N3CCN(C)CC3)CC2)ccc1Nc1ncc2c(n1)N(C1CCCC1)c1ccccc1C(=O)N2C | 100
24 | COc1cc(C(=O)N2CCC(N3CCN(C)CC3)CC2)ccc1Nc1ncc2c(n1)N(C1CCCC1)c1ccccc1C(=O)N2C | 100

Molecular target: STE20-like serine/threonine-protein kinase (Homo sapiens) (UniProt Q9H2G2)
Experiment: Inhibition of T7 bacteriophage fused human SLK at 10 uM by KINOMEscan analysis relative to control

Row | Compound | inhibition [%]
25 | CCOc1cc(C(=O)N2CCC(N3CCN(C)CC3)CC2)ccc1Nc1ncc2c(n1)N(C1CCCC1)c1ccccc1C(=O)N2C | 100
26 | COc1cc(C(=O)N2CCC(N3CCN(C)CC3)CC2)ccc1Nc1ncc2c(n1)N(C1CCCC1)c1ccccc1C(=O)N2C | 100

Molecular target: Ribosomal protein S6 kinase beta-1 (Homo sapiens) (UniProt P23443)
Experiment: Inhibition of T7 bacteriophage fused human S6K1 at 10 uM by KINOMEscan analysis relative to control

Ribosomal protein S6 kinase beta-1 (Homo sapiens), sequence (P23443 whole entry, looked up, the tested form may be a part): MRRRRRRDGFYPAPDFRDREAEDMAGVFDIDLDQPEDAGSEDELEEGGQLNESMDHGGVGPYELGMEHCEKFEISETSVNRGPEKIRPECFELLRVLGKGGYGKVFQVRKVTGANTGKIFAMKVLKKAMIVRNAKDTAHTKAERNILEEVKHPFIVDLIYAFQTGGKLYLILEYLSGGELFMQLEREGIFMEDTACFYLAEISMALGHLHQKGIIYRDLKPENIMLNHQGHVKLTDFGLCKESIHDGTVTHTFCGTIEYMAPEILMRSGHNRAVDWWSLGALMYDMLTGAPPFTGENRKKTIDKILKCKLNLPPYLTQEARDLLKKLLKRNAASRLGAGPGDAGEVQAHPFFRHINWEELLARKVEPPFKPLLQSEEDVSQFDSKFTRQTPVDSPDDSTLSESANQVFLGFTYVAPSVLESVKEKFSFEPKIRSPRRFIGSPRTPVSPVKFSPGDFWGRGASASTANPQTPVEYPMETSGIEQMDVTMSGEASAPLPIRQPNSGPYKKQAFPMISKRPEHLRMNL

Row | Compound | inhibition [%]
27 | CCOc1cc(C(=O)N2CCC(N3CCN(C)CC3)CC2)ccc1Nc1ncc2c(n1)N(C1CCCC1)c1ccccc1C(=O)N2C | 100
28 | COc1cc(C(=O)N2CCC(N3CCN(C)CC3)CC2)ccc1Nc1ncc2c(n1)N(C1CCCC1)c1ccccc1C(=O)N2C | 100

Molecular target: Angiopoietin-1 receptor (Homo sapiens) (UniProt Q02763)
Experiment: Inhibition of T7 bacteriophage fused human TIE2 at 10 uM by KINOMEscan analysis relative to control

Row | Compound | inhibition [%]
29 | CCOc1cc(C(=O)N2CCC(N3CCN(C)CC3)CC2)ccc1Nc1ncc2c(n1)N(C1CCCC1)c1ccccc1C(=O)N2C | 100
30 | COc1cc(C(=O)N2CCC(N3CCN(C)CC3)CC2)ccc1Nc1ncc2c(n1)N(C1CCCC1)c1ccccc1C(=O)N2C | 100

Molecular target: Non-receptor tyrosine-protein kinase TYK2 (Homo sapiens) (UniProt P29597)
Experiment: Inhibition of T7 bacteriophage fused human TYK2 JH2 pseudokinase domain at 10 uM by KINOMEscan analysis relative to control

Non-receptor tyrosine-protein kinase TYK2 (Homo sapiens), sequence (P29597 whole entry, the tested form may be a part): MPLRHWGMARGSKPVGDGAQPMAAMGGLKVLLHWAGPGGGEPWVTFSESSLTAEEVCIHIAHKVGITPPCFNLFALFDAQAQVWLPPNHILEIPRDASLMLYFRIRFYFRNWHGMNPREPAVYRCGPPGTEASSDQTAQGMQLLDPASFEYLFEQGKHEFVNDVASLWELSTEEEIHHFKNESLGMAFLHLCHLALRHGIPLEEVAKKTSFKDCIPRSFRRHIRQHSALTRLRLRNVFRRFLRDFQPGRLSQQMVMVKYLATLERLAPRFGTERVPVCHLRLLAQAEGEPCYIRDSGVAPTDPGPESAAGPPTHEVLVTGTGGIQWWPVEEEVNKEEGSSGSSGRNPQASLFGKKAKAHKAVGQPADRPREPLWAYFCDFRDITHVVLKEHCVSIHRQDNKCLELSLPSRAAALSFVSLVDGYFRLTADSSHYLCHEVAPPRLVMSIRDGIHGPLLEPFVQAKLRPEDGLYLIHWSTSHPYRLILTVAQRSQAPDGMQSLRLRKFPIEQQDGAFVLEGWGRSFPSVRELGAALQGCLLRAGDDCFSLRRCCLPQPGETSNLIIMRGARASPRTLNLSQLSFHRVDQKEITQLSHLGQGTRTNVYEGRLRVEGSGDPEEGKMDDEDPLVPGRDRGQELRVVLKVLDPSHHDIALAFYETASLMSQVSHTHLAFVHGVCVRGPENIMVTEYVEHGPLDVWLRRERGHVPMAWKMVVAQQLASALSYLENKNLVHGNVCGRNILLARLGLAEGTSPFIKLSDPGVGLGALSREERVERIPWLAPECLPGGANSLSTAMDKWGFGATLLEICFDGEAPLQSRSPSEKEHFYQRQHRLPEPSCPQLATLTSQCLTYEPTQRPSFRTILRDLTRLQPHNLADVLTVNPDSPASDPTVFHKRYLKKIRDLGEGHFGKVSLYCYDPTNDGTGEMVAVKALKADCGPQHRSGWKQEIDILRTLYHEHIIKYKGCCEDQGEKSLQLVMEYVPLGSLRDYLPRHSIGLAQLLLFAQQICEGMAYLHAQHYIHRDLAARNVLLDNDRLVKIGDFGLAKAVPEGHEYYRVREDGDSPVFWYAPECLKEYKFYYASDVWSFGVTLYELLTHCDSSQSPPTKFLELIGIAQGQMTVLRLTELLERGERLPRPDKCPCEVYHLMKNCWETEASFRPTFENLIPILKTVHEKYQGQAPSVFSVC

Row | Compound | inhibition [%]
31 | CCOc1cc(C(=O)N2CCC(N3CCN(C)CC3)CC2)ccc1Nc1ncc2c(n1)N(C1CCCC1)c1ccccc1C(=O)N2C | 100
32 | COc1cc(C(=O)N2CCC(N3CCN(C)CC3)CC2)ccc1Nc1ncc2c(n1)N(C1CCCC1)c1ccccc1C(=O)N2C | 100

Molecular target: Serine/threonine-protein kinase 32C (Homo sapiens) (UniProt Q86UX6)
Experiment: Inhibition of T7 bacteriophage fused human YANK3 at 10 uM by KINOMEscan analysis relative to control

Serine/threonine-protein kinase 32C (Homo sapiens), sequence (Q86UX6 whole entry, the tested form may be a part): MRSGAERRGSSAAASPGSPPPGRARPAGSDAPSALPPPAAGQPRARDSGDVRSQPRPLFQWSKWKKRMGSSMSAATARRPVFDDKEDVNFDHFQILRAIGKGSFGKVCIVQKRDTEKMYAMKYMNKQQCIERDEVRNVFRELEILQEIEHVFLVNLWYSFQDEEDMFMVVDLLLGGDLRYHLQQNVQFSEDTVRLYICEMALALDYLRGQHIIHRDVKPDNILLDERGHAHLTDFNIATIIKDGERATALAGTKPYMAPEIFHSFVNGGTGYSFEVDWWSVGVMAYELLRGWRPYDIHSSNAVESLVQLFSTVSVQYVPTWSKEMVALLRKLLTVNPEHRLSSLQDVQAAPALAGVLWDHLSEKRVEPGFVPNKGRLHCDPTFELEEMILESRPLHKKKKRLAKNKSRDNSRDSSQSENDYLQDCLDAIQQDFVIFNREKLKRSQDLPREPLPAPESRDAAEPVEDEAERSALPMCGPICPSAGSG

Row | Compound | inhibition [%]
33 | CCOc1cc(C(=O)N2CCC(N3CCN(C)CC3)CC2)ccc1Nc1ncc2c(n1)N(C1CCCC1)c1ccccc1C(=O)N2C | 100
34 | COc1cc(C(=O)N2CCC(N3CCN(C)CC3)CC2)ccc1Nc1ncc2c(n1)N(C1CCCC1)c1ccccc1C(=O)N2C | 100
